# Source: patent US5164385A, “Azetidine derivatives and hypotensive compositions thereof” (John Wyeth & Brother, Ltd., priority 1990, dated 1992)
# Assays:
# [1] = tested on: arterial blood pressure and heart rate; experiment: Hypotensive activity in anaesthetised normotensive rats; format: in vivo, rat (Sprague-Dawley); conditions: iv
# Description: The compounds are tested for hypotensive activity in anaesthetised normotensive rats. In this procedure adult male Sprague-Dawley rats weighing 200-400 g are anaesthetised with 70 mg/kg pentobarbitone sodium, i.p. The fermoral (or jugular) vein, the femoral (or carotid) artery, and the trachea are cannulated and the vascular canulae then flushed with 0.3 ml of heparinised saline (125 U/ml). The arterial blood pressure and heart rate are continuously monitored. Top-up doses of 6 or 12 mg/kg anaesthetic are administered as required until a stable base-line is obtained. A cumulative dose-response curve to the test compound is then obtained, using a 5 min dose interval. Each dose is administered in a volume of […] and flushed in with 0.5 ml saline. Systolic, diastolic, and mean arterial blood pressure and heart rate are then calculated 5 min after each dose and compared with the pre-dose value. Mean results from six rats are analysed using analysis of variants. The ED20 (ie the dose giving a 20% fall in mean arterial blood pressure) is also calculated. […] The minimum effective dose of this compound which produced a significant decrease in blood pressure was 1 μg/kg iv, and the ED20 was 5.2 μg/kg iv.
# [2] = molecular target: T1, 5-HT1 receptor (Rattus norvegicus, UniProt P19327); experiment: 5-HT1 receptor agonist activity in vivo: induction of the 5-HT behavioural syndrome in rats; conditions: iv, sequential up-down method
# T1 construct: measuring their ability to induce the 5-HT behavioural syndrome in rats; from tissue; host or cells: living rats (in vivo, intravenous dosing); endogenous receptor of the central nervous system
# T1 sequence (P19327 1-422): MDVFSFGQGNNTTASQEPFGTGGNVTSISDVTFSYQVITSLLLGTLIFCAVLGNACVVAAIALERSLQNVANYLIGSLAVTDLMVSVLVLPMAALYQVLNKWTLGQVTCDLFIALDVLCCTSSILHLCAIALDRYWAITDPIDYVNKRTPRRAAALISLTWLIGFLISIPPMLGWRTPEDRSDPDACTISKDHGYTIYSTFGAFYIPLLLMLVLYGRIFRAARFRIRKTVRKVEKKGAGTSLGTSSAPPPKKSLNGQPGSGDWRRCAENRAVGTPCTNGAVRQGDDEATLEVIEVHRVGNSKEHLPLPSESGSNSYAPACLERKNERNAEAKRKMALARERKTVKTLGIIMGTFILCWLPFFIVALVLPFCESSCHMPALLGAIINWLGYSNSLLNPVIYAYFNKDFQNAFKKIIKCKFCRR
# Description: The compounds are evaluated for 5-HT1 receptor agonist activity in vivo by measuring their ability to induce the 5-HT behavioural syndrome in rats (A. R. Green, Neuropharmacology, 1984, 23 1521). Compounds which induce 5-HT-related behaviours are adjudged to be `active`, and a sequential up-down method (A. W. Kimball, W. T. Burnett, and D. G. Doherty, Radiation Research, 1957, 7, 1) is used to determine ED50 values for the compounds.
# [3] = anaesthetised normotensive male Sprague-Dawley rats, cumulative dose-response, 5 min after each dose
smiles,measurement,setting,value
"Oc1cccc2c1CC(N1CCC1)CC2 (centres unmarked) [Example 3, 7-(1-Azetidinyl)-5,6,7,8-tetrahydro-1-naphthalenol]",ED20,"[1]; Rattus norvegicus, 5 min, anaesthetised normotensive rats, read-out: ED20 (dose giving a 20% fall in mean arterial blood pressure)",5.2 µg/kg
same,minimal effective dose,"[1]; Rattus norvegicus, 5 min, anaesthetised normotensive rats, read-out: minimum effective dose which produced a significant decrease in blood pressure",1 µg/kg
same,effect on blood pressure,[1]; [3],dose-related falls
same,effect on heart rate,[1]; [3],dose-related falls
same,ED50,[2],70 µg/kg
